Laboratory results taken from paper PMC11350846, “Synthesis of Second-Generation Analogs of Temporin-SHa Peptide Having Broad-Spectrum Antibacterial and Anticancer Effects” (Antibiotics, 2024).
Where a SMILES comes first, the peptide text is derived from it. [ ]: non-standard residue; d: D form.

How the values were obtained:
[1] = tested on: human cancer and normal/non-cancerous cells; format: cell-based; settings: cancer or normal cells, except breast cancer MCF-7 cells; read-out: IC50, cancer or normal cell proliferation
Protocol: (§1) The antiproliferative activity of the peptides was evaluated, as previously described using human cancer cell lines (A549 (lung), A2780 (ovary), HepG-2 (liver), MCF-7 (breast), MiaPaCa-2 (pancreas), MNT-1 (skin), and PC-3 (prostate)) and normal human lung fibroblasts (IMR-90) or epithelial cells (BEAS-2B). The cells were cultured in DMEM supplemented with 10% FBS, 1% L-glutamine, and 1% antibiotics at 37 °C in a 5% CO2 incubator. For the antiproliferative assay, cells were seeded in 96-well plates at approximately 3000 cells/well. Twenty-four hours later, cells were treated with increasing concentrations of peptides (1:2 serial dilution from 100 µM to 0 µM) for 48 h. After treatment, the number of viable cells was determined using a resazurin-based assay, and the fluorescence intensity was measured with a microplate reader (Ex 530 nm/Em 590 nm). The IC50 values of the peptides (i.e., the concentrations causing 50% inhibition of cell proliferation) were determined using GraphPad® Prism 7 software. The experiments were performed in triplicate (n = 3). The cytotoxicity of the peptides was also evaluated using confluent/no-dividing cells, as previously described. Briefly, human cells were seeded onto 96-well plates at 20,000 cells/well. When they reached 80–90% confluence (after 24–48 h), cells were treated with escalating concentrations of peptides. After 48h incubation, cell viability was measured using a resazurin assay and CC50 (i.e., the concentrations causing 50% inhibition of cell viability) and determined using GraphPad® Prism 7 software. The experiments were performed in triplicate (n = 3).

[2] = Circular dichroism, secondary structure (Bestsel); format: physicochemical; settings: CD in 20 mM SDS
Protocol: Circular dichroism of temporin SHa, [G10a]-SHa and newly synthesised second-generation analogs of [G10a]-SHa in 20 mM SDS are shown in Figure 2. In lipidic environments mimicked by SDS, peptides adopt an alpha helical structure due to their amphipathic nature. This structural feature is important for their antimicrobial activity, allowing for their insertion into bacterial membranes. The hydrophobic region of the peptide interacts with the hydrophobic portion of the lipid while the hydrophilic region remains exposed to the aqueous environment. The percentage of alpha helix, as well as the percentage of other secondary structures, was determined from CD data using Bestsel software (https://bestsel.elte.hu/index.php, (accessed on 22 June 2024)) (Table 3). Temporin-SHa (1) adopted a 49.5% α-helical structure, while its first-generation analog [G10a]-SHa (2) acquired a 82.4% alpha helical structure. The 84.6%, 88.7%, 4.7%, and 53.8% alpha helical structures were acquired for second-generation analogs 3, 4, 5, and 6, respectively.
The far-ultraviolet CD spectra were obtained using a JASCO J-810 spectropolarimeter (Jasco, Tokyo, Japan). In addition to this, the quartz cuvette of 10 mm path length was used. The temperature was maintained at 22 °C, and the output of the instrument was calibrated using D-(+)-10-camphorsulfonic acid. The peptides, which were present at a concentration of 1.0 mg/mL, were dissolved completely in 20 mM SDS at a concentration of 15 µM [21]. The instrument was set to record wavelengths ranging from 190 to 260 nm with a bandwidth of 2 nm. Ten consecutive scans (accumulations) were recorded for each spectrum at a rate of 50 nm/min, and the baseline was acquired under the same conditions.

human cancer cells = format: cell-based; settings: mean of all human cancer cells tested; read-out: IC50, mean over cancer cells
Protocol: as §1

Compound	IC50 [1]	Antiparallel [2]	Helix (alpha helical structure) [2]	Others [2]	Parallel [2]	Turn [2]	IC50 (human cancer cells)
CC[C@H](C)[C@H](NC(=O)CNC(=O)[C@H](CO)NC(=O)[C@H](CC(C)C)NC(=O)[C@@H](N)Cc1ccccc1)C(=O)N[C@H](C(=O)NCC(=O)N[C@@H](CCSC)C(=O)N[C@@H](CC(C)C)C(=O)NCC(=O)N[C@@H](CCCCN)C(=O)N[C@@H](CC(C)C)C(=O)N[C@@H](Cc1ccccc1)C(N)=O)C(C)C [Temporin-SHa (1), H-Phe^1-Leu^2-Ser^3-Gly^4-IIe^5-Val^6-Gly^7-Met^8-Leu^9-Gly^10-Lys^11-Leu^12-Phe^13-NH2, reference compound] (H-FLSGIVGMLGKLF-NH2)	> 100 µM	0.00%	49.5%	49.80%	0.00%	0.70%	
CC[C@H](C)[C@H](NC(=O)CNC(=O)[C@H](CO)NC(=O)[C@H](CC(C)C)NC(=O)[C@@H](N)Cc1ccccc1)C(=O)N[C@H](C(=O)NCC(=O)N[C@@H](CCSC)C(=O)N[C@@H](CC(C)C)C(=O)N[C@H](C)C(=O)N[C@@H](CCCCN)C(=O)N[C@@H](CC(C)C)C(=O)N[C@@H](Cc1ccccc1)C(N)=O)C(C)C [[G10a]-SHa (2), H-Phe^1-Leu^2-Ser^3-Gly^4-IIe^5-Val^6-Gly^7-Met^8-Leu^9-D-Ala^10-Lys^11-Leu^12-Phe^13-NH2] (H-FLSGIVGML[dA]KLF-NH2)		17.60%	82.4%	0.00%	0.00%	0.00%	18.7 ± 9 µM
